The target in one test is α7 nAChR (Rattus norvegicus (Rat), UniProt Q05941). Kind of test: Affinity for α7 nAChR by inhibition of [3H]-methyllycaconitine binding to rat brain membranes. As for the experimental part: 1. Determination of the Affinity of Test Substances for α7 nAChR by Inhibition of [^3H]-Methyllycaconitine Binding to Rat Brain Membranes
The [^3H]-methyllycaconitine binding assay is a modification of the method described by Davies et al. in Neuropharmacol. 1999, 38, 679-690.
Rat brain tissue (hippocampus or whole brain) is homogenized in aqueous homogenization buffer (10% w/v, 0.32 M sucrose, 1 mM EDTA, 0.1 mM phenylmethylsulfonyl fluoride (PMSF), 0.01% (w/v) NaN3, pH 7.4, 4° C.) at 600 rpm in a glass homogenizer. The homogenate is centrifuged (1000×g, 4° C., 10 min) and the supernatant is removed. The pellet is resuspended (20% w/v) and the suspension is centrifuged (1000×g, 4° C., 10 min). The two supernatants are combined and centrifuged (15 000×g, 4° C., 30 min). The pellet obtained in this way is referred to as the P2 fraction.
The P2 pellet is suspended in binding buffer (50 mM Tris-HCl, 1 mM MgCl2, 120 mM NaCl, 5 mM KCl, 2 mM CaCl2, pH 7.4), and the suspension is centrifuged (15 000×g, 4° C., 30 min), twice.
The residue is resuspended in binding buffer to a concentration of […] and incubated in a volume of 250 μl (amount of membrane protein 0.4 mg) in the presence of 2 nM [3H]-methyllyeaconitine, 0.1% (w/v) BSA (bovine serum albumin) and various concentrations of the test substance at 21° C. for 60 min.
Incubation is then carried out in the presence of 1 μM α-bungarotoxin or 100 μM nicotine or 10 μM MLA (methyllycaconitine). The incubation is stopped by adding 4 ml of PBS (20 mM Na2HPO4, 5 mM KH2PO4, 150 mM NaCl, pH 7.4, 4° C.) and filtering through type A/E glass fiber filters (Gelman Sciences) which have previously been placed in 0.3% (v/v) polyethyleneimine (PEI) for 3 h. The filters are washed twice with 4 ml of PBS (4° C.), and the bound radioactivity is determined by scintillation measurement. All the assays are carried out in triplicate. The dissociation constant Ki of the test substance was determined from the IC50 of the compounds (concentration of the test substance at which 50% of the ligand bound to the receptor is displaced), the dissociation constant KD and the concentration L of [^3H]-methyllycaconitine using the equation Ki=IC50/(1+L/KD).

The target of test [1] is recombinant human 5-HT3 receptor (Homo sapiens (Human), UniProt P46098). Briefly: Affinity for 5-HT3 receptors through inhibition of [3H]GR65630 binding. As for the experimental part:
2. Determination of the Affinity of Test Substances for 5-HT3 Receptors Through Inhibition of [^3H]GR65630 Binding
Membranes from HEK293 cells which express recombinant human 5-HT3 receptor (RB-HS3, Receptor Biology, Inc., MD, USA) are diluted in accordance with the manufacturer's instructions in incubation buffer (50 mM Iris base, pH 7.4, 5 mM MgCl2, 0.5 mM EDTA, 0.1% (w/v) ascorbic acid, 10 μM pargyline and incubated in a volume of 200 μl (amount of membrane protein 3 μg) in the presence of 0.5 nM of the selective 5-HT3 receptor radio ligand [^3H]-GR65630 (NET 1011, Du Pont) and various concentrations of the test substance at 21° C. for 60 min. The nonspecific binding is determined by incubation in the presence of 100 μM 5-HT (5-hydroxytryptamine). The incubation is stopped by filtering through type A/E glass fiber filters (Gelman Sciences) or GF/B filters (Whatman) which have previously been placed in 0.3% (v/v) polyethyleneimine (PEI) for at least 1 h. The filters are washed three times with 3 ml of washing buffer (50 mM Tris-HCl, pH 7.4; 4° C.), and the bound radioactivity is determined by scintillation measurement. All the assays are carried out in triplicate. The dissociation constant Ki of the test substance is determined from the IC50 of the compounds (concentration of the test substance at which 50% of the ligand bound to the receptor is displaced), the dissociation constant KD and the concentration L of [^3H]GR65630 (Ki=IC50/(1+L/KD)).

The mark [2] stands for this setting: [3H]GR65630 displacement, membranes from HEK293 cells expressing human 5-HT3 receptor, read-out: Ki.
Where [3] appears, read: [3H]-methyllycaconitine displacement, rat brain membranes, read-out: Ki.

This is an account of results in US8772511B2, “Azabicyclic carbamates and their use as alpha-7 nicotinic acetylcholine receptor agonists” (Bayer Intellectual Property GmbH, priority 2002, dated 2014).

pKi: −log10 of the molar value. Counter-ions that a name gives are not always drawn. Like-named read-outs stand apart in the source and are kept apart here. Some results are limits rather than exact numbers.

Sequence of recombinant human 5-HT3 receptor (P46098 24-478): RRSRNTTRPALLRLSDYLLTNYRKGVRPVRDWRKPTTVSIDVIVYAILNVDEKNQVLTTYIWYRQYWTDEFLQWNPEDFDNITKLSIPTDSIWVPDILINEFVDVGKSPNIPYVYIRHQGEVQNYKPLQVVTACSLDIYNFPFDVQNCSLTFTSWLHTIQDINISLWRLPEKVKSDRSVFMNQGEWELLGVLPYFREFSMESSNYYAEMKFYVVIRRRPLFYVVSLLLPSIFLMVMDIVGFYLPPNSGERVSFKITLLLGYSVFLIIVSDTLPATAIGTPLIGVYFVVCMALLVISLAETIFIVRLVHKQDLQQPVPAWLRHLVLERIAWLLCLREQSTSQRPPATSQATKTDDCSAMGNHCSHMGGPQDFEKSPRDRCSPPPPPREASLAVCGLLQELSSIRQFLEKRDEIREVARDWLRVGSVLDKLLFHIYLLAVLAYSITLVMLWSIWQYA
Sequence of α7 nAChR (Q05941 23-502 limits assumed): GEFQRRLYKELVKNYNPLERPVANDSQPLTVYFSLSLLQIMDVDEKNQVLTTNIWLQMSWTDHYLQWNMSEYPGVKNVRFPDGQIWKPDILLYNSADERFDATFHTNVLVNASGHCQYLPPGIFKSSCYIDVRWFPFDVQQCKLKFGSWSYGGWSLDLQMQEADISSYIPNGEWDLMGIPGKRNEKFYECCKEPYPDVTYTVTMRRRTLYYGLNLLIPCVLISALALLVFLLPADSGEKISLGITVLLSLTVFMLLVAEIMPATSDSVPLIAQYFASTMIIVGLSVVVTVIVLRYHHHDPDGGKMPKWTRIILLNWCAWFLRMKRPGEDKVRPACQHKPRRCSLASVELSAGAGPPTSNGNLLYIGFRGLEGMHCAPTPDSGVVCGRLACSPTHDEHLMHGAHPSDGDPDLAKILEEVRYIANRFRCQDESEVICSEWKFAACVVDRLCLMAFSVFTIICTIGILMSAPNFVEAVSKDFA

Broadly, the pKi is the Ki on a negative log10 scale, so that one unit is a factor of ten. As for `COc1cccc(NC(=O)Nc2ccc3cc(C(=O)N[C@H]4CN5CCC4CC5)sc3c2)c1` [Example 16, N-[(3R)-1-Azabicyclo[2.2.2]oct-3-yl]-6-[({[3-methoxyphenyl]amino}carbonyl)-amino]-1-benzothiophene-2-carboxamide hydrochloride], the values for the pKi (at α7 nAChR; in test [1] (setting [2])) were 8.37 and 5.68, respectively.

`N#Cc1cccc(NC(=O)Nc2ccc3cc(C(=O)N[C@H]4CN5CCC4CC5)sc3c2)c1` [Example 6, N-[(3R)-1-Azabicyclo[2.2.2]oct-3-yl]-6-({[(3-cyanophenyl)amino]carbonyl}amino)-1-benzothiophene-2-carboxamide hydrochloride]: the negative-log Ki (pKi) on α7 nAChR is 8.10; in test [1] (setting [2]) it was 5.77. `COc1cc(NC(=O)Nc2ccc3cc(C(=O)N[C@H]4CN5CCC4CC5)sc3c2)cc(OC)c1OC` [Example 14, N-[(3R)-1-Azabicyclo[2.2.2]oct-3-yl]-6-({[(3,4,5-trimethoxyphenyl)amino]-carbonyl}amino)-1-benzothiophene-2-carboxamide hydrochloride]: in test [1], the pKi is 5.16.

As for `COc1ccc(NC(=O)Nc2ccc3cc(C(=O)N[C@H]4CN5CCC4CC5)oc3c2)cc1` [Example 22, N-[(3R)-1-Azabicyclo[2.2.2]oct-3-yl]-6-({[(4-methoxyphenyl)amino]carbonyl}-amino)-1-benzofuran-2-carboxamide hydrochloride], at α7 nAChR (setting [3]), the pKi is over 9.00. For the molecule `O=C(NCCc1ccccc1)Nc1ccc2cc(C(=O)N[C@H]3CN4CCC3CC4)sc2c1` [Example 5, N-[(3R)-1-Azabicyclo[2.2.2]oct-3-yl]-6-({[(2-phenylethyl)amino]carbonyl}amino)-1-benzothiophene-2-carboxamide hydrochloride], the results for the negative-log Ki (pKi) (on α7 nAChR (setting [3]); in test [1]) were 7.66 and 4.92, respectively. As for `O=C(Nc1ccccc1)Nc1cccc2cc(C(=O)N[C@H]3CN4CCC3CC4)sc12` [Example 21, 7-[(Anilinocarbonyl)amino]-N-[(3R)-1-azabicyclo[2.2.2]oct-3-yl]-1-benzothiophene-2-carboxamide hydrochloride], the pKi on α7 nAChR was 7.82; in test [1] (setting [2]) it was 5.80. As to `O=C(Nc1ccc2cc(C(=O)N[C@H]3CN4CCC3CC4)sc2c1)Nc1c(F)cccc1F` [Example 11, N-[(3R)-1-Azabicyclo[2.2.2]oct-3-yl]-6-({[(2,6-difluorophenyl)amino]carbonyl}-amino)-1-benzothiophene-2-carboxamide hydrochloride], the pKi was 9.40 at α7 nAChR and 5.26 in test [1] (setting [2]). `COc1ccc(NC(=O)Nc2ccc3cc(C(=O)N[C@H]4CN5CCC4CC5)sc3c2)cc1` [Example 4, N-[(3R)-1-Azabicyclo[2.2.2]oct-3-yl]-6-({[(4-methoxyphenyl)amino]carbonyl}-amino)-1-benzothiophene-2-carboxamide hydrochloride]: at α7 nAChR (setting [3]), the pKi was 8.68.
